Read-outs that look alike come from different tables or passages of the source.
What was measured:
[1] = tested on: Human platelet aggregation (ADP induced); assay: Human platelet aggregation inhibiting effect (in vitro); format: cell-based; conditions: human PRP, ADP 2-10 μM, 37° C., one minute preincubation, read-out: Platelet aggregation inhibiting ratio (IC50)
Experimental: Platelet aggregation inhibiting effect
Bloods were sampled from healthy voluers (22-34 years old) with no administration of drug for 2 weeks or more early in the morning when they were hungry. By use of an injector filled with 5 ml of 3.8% sodium citrate solution, 50 ml of blood was sampled, immediately stirred by turning upside down and centrifuged at 200×g for 15 minutes. The supernatant was separated as the PRP (platelet rich plasma) and the residue further subjected to centrigugation at 2000×g for 15 minutes, followed by recovery of the supernatant as PPP (poor platelet plasma) which was provided for use in the experiment.
PRP (250 μ) was placed in a cuvette, 5 μof an 1% ethanol solution of the compound of the present invention or an 1% ethanol solution was added, and incubation was carried out at 37° C. for one minute. Then, an aggregation inducing agent (ADP) was added and the process of aggregation was recorded by Aggregometer (Sienco Co.). As the concentration of ADP, the minimum concentrations of ADP (2-10 μM) to give the maximum aggregation for respective platelets were employed. The inhibition percentage of platelet aggregation was calculated by the following formula:
Inhibition percentage=(A-B)/A×100
A: Maximum aggregation ratio during addition of solvent (1% ethanol solution)
B: Maximum aggregation ratio during addition of the compound of the present invention.
The platelet aggregation inhibiting effects of the compounds of the present invention are shown in terms of IC50 values in Table 6.

gastric acid secretion = assay: Antiulcer effect (2): rat gastric acid inhibiting effect (pylorus ligature); format: in vivo, male Wistar rat; conditions: subcutaneous, 100 μg/kg, 4 hours after pylorus ligature; for Amount of gastric acid secreted: solvent 73.6
Experimental: Male wistar strain rats (weighing 250-280 g) were fasted for 18 hours subjected to peritoneotomy under ether anesthesia for ligature of pylorus, and after 4 hours under abstinence from food and water, gastric juice was sampled. The gastric juice was centrifuged at 3000 rpm for 10 minutes, and then the amount, pH and acidity of the gastric juice were measured. The acidity was measured by titration by means of an automatic titrating device (Toa Denpa Kogyo) with a 0.1N NaOH to pH 7.0 and calculating according to the following formula: [formula]
The gastric juice secretion inhibition percentage was calculated according to the following formula: [formula] A: Amount of gastric acid excreted in Control group B: Amount of gastric acid excreted in Drug group
The drugs to be tested were adminsistered subcutaneously immediately after pylorus ligature.

right femoral artery = assay: Vasodilative effect (perfusion pressure of femoral artery in anesthetized dogs); format: in vivo, dog; conditions: intraarterial, 100 μg/kg
Experimental: Female and male adult dogs were anesthetized by intraveneous administeration of 30 mg/kg of sodium pentobarbital and fixed on their back positions. The right femoral artery was perfused at constant flow with the dog's own blood by means of a peristaltic pump (Harvard Co.). The perfusion pressure was measured with an electromanometer and systemic blood pressure was measured in the other femoral artery with a pressure transducer. As an anticoagulant, 500 U/kg of heparin sodium was intravenously administered.
The compound of the present invention was dissolved in 10% ethanol-90% physiological salt solution and administered into arterial blood through a thick rubber tube provided in the perfusion circuit. The vasodilative effect of the compound of the present invention is expressed by the change ratio of perfusion pressure after administration into the artery.

blood pressure = assay: Hypotensive effect in anesthetized rats; format: in vivo, male Wistar rat; conditions: intravenous, 10 μg/kg
Experimental: Male wistar strain rats (weighing 240-290 g) were anesthetized by intraperitoneal administration of 50 mg/kg of sodium pentobarbital, and blood pressures were measured. The compound of the present invention was administered intravenously as a solution dissolved in 10 ethanol- 90% physiological salt solution. The hypotensive effect is expressed by the percent change of average blood pressure after intravenous administration (relative to that before administration).

gastric mucosa damage = assay: Antiulcer effect (1): inhibition of hydrochloric acid induced gastric mucosa damage; format: in vivo, male SD rat; conditions: oral, 25 μg/kg, 30 minutes before 1 ml of 0.6N hydrochloric acid
Experimental: Male SD-strain rats (weighing 220-255 g) were fasted for 20 hours (water was given ad libitum) and, after further abstinence from food and water for 4 hours, the compound of the present invention was administered orally, followed further by oral administration of 1 ml of 0.6N hydrochloric acid 30 minutes later. One hour after administration of hydrochloric acid, the stomach was enucleated under chloroform anesthesia. The fluid in the stomach was discharged and 7.5 ml of a 1% formalin solution was injected into the stomach to fix the gastric mucosa. Then, the stomach was dissected along the greater curvature and the length of the gastric mucosa damage was measured under a steroscopic microscope. The compound of the present invention was dissolved in 5% ethanol-95% physiological salt solution and administered at a dose of 25 μg/kg in a volume of 5 ml/kg.
The antiulcer effect of the compound of the present invention was calculated by the following formula: [formula] l: length of gastric mucosa damage in the group to which the compound of the present invention is administered;
lo: length of gastric mucosa damage in the group of non-administration of drug.

Compound | Gastric acid secretion Inhibition (gastric acid secretion) | Amount of gastric acid secreted (gastric acid secretion) | IC50 ([1]; Platelet) | other results
CCCC(C)C[C@H](O)/C=C/[C@H]1[C@H]2CC(C=CCCC(=O)O)=C[C@H]2C[C@H]1O (mixture of isomers) [Compound K, 3-(4'-carboxy-1'-butenyl)-6(S)-(3'(S)-hydroxy-5'(RS)-methyl-trans-1'-octenyl)-7(R)-hydroxy-(1S,5S)-cis-bicyclo[3.3.0]oct-2-ene] | 70.5% | 21.7 mEq/l |  | IC50 [1]: 2 nM
CCCCC(C)C[C@H](O)/C=C/[C@H]1[C@H]2CC(C=CCCC(=O)O)=C[C@H]2C[C@H]1O (mixture of isomers) [Compound M, 3-(4'-carboxy-1'-butenyl)-6(S)-(3'(S)-hydroxy-5'(RS)-methyl-trans-1'-nonenyl)-7(R)-hydroxy-(1S,5S)-cis-bicyclo[3.3.0]-oct-2-ene] | 73.5% | 19.5 mEq/l |  | IC50 [1]: 4 nM
CCCCC[C@H](O)/C=C/[C@@H]1[C@H]2CC(C=CCCC(=O)O)=C[C@H]2C[C@H]1O [Compound A] |  |  | 14 nM | 
O=C(O)CCC=CC1=C[C@H]2C[C@@H](O)[C@H](/C=C/[C@@H](O)C3CCCC3)[C@H]2C1 [Compound B] |  |  | 7 nM | 
CC#CCC(C)[C@H](O)/C=C/[C@@H]1[C@H]2CC(C=CCCC(=O)O)=C[C@H]2C[C@H]1O (some centres unmarked) [Compound C] |  |  | 0.8 nM | 
CC(C)=CCC[C@@H](C)C[C@H](O)/C=C/[C@@H]1[C@H]2CC(C=CCCC(=O)O)=C[C@H]2C[C@H]1O [Compound D] |  |  | 20 nM | 
O=C(O)CCC=CC1=C[C@H]2C[C@@H](O)[C@H](/C=C/[C@@H](O)C3CCCCC3)[C@H]2C1 [Compound E] |  |  | 5 nM | 
CCC#CCC(C)[C@H](O)/C=C/[C@@H]1[C@H]2CC(C=CCCC(=O)O)=C[C@H]2C[C@H]1O (stereo partly drawn) [Compound F, 3-(4'-carboxy-1'-butenyl)-6(S)-(3'(S)-hydroxy-4'(RS)-methyl-trans-1'-nonen-6'-ynyl)-7(R)-hydroxy-(1S,5S)-cis-bicyclo[3.3.0]oct-2-ene] | 81.8% | 13.4 mEq/l | 4 nM | 
CCC#CC(C)C[C@H](O)/C=C/[C@@H]1[C@H]2CC(C=CCCC(=O)O)=C[C@H]2C[C@H]1O (some centres unmarked) [Compound G] |  |  | 0.6 nM | 
CCCCCC(C)[C@H](O)/C=C/[C@@H]1[C@H]2CC(C=CCCC(=O)O)=C[C@H]2C[C@H]1O (stereo partly drawn) [Compound H, 3-(4'-carboxy-1'-butenyl)-6(S)-(3'(S)-hydroxy-4'(RS)-methyl-trans-1'-nonenyl-7(R)-hydroxy-1S,5S)-cis-bicyclo[3.3.0]oct-2-ene] | 89.9% | 7.4 mEq/l | 8 nM | 
O=C(O)CCC=CC1=C[C@H]2C[C@@H](O)[C@H](/C=C/[C@@H](O)CCc3ccccc3)[C@H]2C1 [Compound I, 3-(4'-carboxy-1'-butenyl)-6(S)-(3'(S)-hydroxy-5'-phenyl-trans-1'-pentenyl)-7(R)-hydroxy-(1S,5S)-cis-bicyclo[3.3.0]oct-2-ene] | 73.5% | 19.5 mEq/l | 80 nM | 
CCCCC(C)(C)[C@H](O)/C=C/[C@@H]1[C@H]2CC(C=CCCC(=O)O)=C[C@H]2C[C@H]1O [Compound J, 3-(4'-carboxy-1'-butenyl)-6(S)-(3'(S)-hydroxy-4',4'-dimethyl-trans-1'-octenyl)-7(R)-hydroxy-(1S,5S)-cis-bicyclo[3.3.0]oct-2-ene] | 18.1% | 60.3 mEq/l | 200 nM | 
CC(C1CCCCC1)[C@H](O)/C=C/[C@@H]1[C@H]2CC(C=CCCC(=O)O)=C[C@H]2C[C@H]1O (some centres unmarked) [Compound L] | 36.8% | 46.5 mEq/l | 300 nM | 
O=C(O)CCCC=C1C[C@H]2C[C@@H](O)[C@H](/C=C/[C@@H](O)C3CCCC3)[C@H]2C1 [OP-41483] |  |  | 9 nM | Perfusion pressure change (right femoral artery): -16%; Percent change of average blood pressure (blood pressure): -39%; Inhibition of gastric mucosa damage (gastric mucosa damage): -28.3%
CCCCC[C@H](O)/C=C/[C@H]1[C@H](O)CC(=O)[C@@H]1C/C=C\CCCC(=O)O [PGE2] |  |  |  | Inhibition of gastric mucosa damage (gastric mucosa damage): 61.1%

— US4699921A, “Pharmaceuticals containing prostaglandin I2” (Mitsubishi Yuka Pharmaceutical Co., Ltd., priority 1984, dated 1987)
